Results as given in EP0384421A2, “Use of PAF antagonists in the treatment of pathologic changes of the blood gas” (BOEHRINGER INGELHEIM KG, priority 1989, dated 1990).
Several values for one entry are separate records, joined by “and”; a condition that tells them apart may be missing. Equal values may be shown once.

Key:
Methylparathion = tested on: Methylparathion; design: species or system Ratten; details: in vivo
From the text: Die Bestimmung der Partialdrucke der nachfolgend aufgeführten Blutgase sowie die Bestimmung des pH-Wertes des Blutes sind ein Indiz dafür, daß eine Behandlungsmethode bei Organophosphorvergiftungen positiv anspricht.
In der Tabelle I sind der pH-Wert und die Partialdrucke von CO₂ und O₂ aufgeführt. Die Ergebnisse sind Mittelwerte die aus Versuchen an 6 bis 15 Ratten je Experiment erhalten wurden. […] Die Konzentration von Atropin und Web 2086 ist in der Tabelle angegeben und bezieht sich auf mg/kg i.v. Die Reihenfolge der Applikation ist in Spalte 1 der Tabelle angegeben. Die Blutentnahme erfolgt 5 Minuten nach der letzten Substanzgabe. Die Blutgas-Messung erfolgte mit einem "Corning-Blood-Gas-Analyser 178".

PAF = assay: Acid-base balance and blood gases in arterial blood of rats after PAF and a PAF antagonist; assay type: in vivo, Ratten; details: for BE / HCO3 / O2sat / TCO2 / pCO2 / pO2 / ph: PAF 10 µg/kg i.v., rats; for pH-Wert-Erniedrigung: pH decrease caused by PAF 10 µg/kg i.v.
[1] = PAF antagonist 1000 ug/kg i.v., arterial blood
[2] = PAF antagonist 100 ug/kg i.v., arterial blood

For `CN1C2CCC1CC(OC(=O)C(CO)c1ccccc1)C2` (racemic) [Atropin, reference compound], which pH (Methylparathion) is on record?
Its pH is 7,43 and 7,21 and 6,97.

Which results are given for `Cc1nnc2n1-c1sc(Br)cc1C(c1ccccc1Cl)=NC2` [Brotizolam, reference compound]?
BE (PAF; 10 mg/kg p.o.): -18,95; HCO3 (PAF; 10 mg/kg p.o.): 7,88; O2sat (PAF; 10 mg/kg p.o.): 95,48; TCO2 (PAF; 10 mg/kg p.o.): 8,57; pCO2 (PAF; 10 mg/kg p.o.): 22,22; pO2 (PAF; 10 mg/kg p.o.): 104,47; ph (PAF; 10 mg/kg p.o.): 7,17; BE (PAF; 30 mg/kg p.o.): -3,32; HCO3 (PAF; 30 mg/kg p.o.): 20,97; O2sat (PAF; 30 mg/kg p.o.): 94,43; TCO2 (PAF; 30 mg/kg p.o.): 22,05; pCO2 (PAF; 30 mg/kg p.o.): 35,53; pO2 (PAF; 30 mg/kg p.o.): 87,42; ph (PAF; 30 mg/kg p.o.): 7,37; BE (PAF; 100 mg/kg p.o.): -7,94; HCO3 (PAF; 100 mg/kg p.o.): 16,38; O2sat (PAF; 100 mg/kg p.o.): 95,18; TCO2 (PAF; 100 mg/kg p.o.): 17,34; pCO2 (PAF; 100 mg/kg p.o.): 30,60; pO2 (PAF; 100 mg/kg p.o.): 87,92; ph (PAF; 100 mg/kg p.o.): 7,33; Blutgas-stabilisierende Wirkung (PAF; 10,30 und 100 mg/kg p.o., same experimental set-up): dosisabhängig; durch PAF-verursachte pH Wert-Verminderung (PAF; 30 und 100 mg/kg): verhindert; Abnahme des CO₂-Partialdruckes und Abnahme des Basenüberschusses (PAF; 30 und 100 mg/kg, PAF-induced): verhindert

Which BE (PAF; [1]) does the source give for `Cc1nnc2n1-c1sc3c(c1C(c1ccccc1Cl)=NC2)CC(CN1CCOCC1)C3` (centres unmarked) [STY 2108] here?
Its BE is 0.42.

And the HCO3 (PAF; [1])?
The HCO3 was 24.5.

What about the O2sat (PAF; [1]) of the same compound?
Its O2sat is 96.8.

And the TCO2 (PAF; [1])?
The TCO2 was 25.8.

And the pCO2 (PAF; [1])?
The pCO2 was 39.5.

What about the pO2 (PAF; [1]) of the same compound?
The pO2 was 90.4.

What about the ph (PAF; [1]) of the same compound?
Its ph is 7.40.

What about the pH-Wert-Erniedrigung (PAF) of the same compound?
Its pH-Wert-Erniedrigung is “verhindert”.

Which results are given for `Cc1nnc2n1-c1sc(CCC(=O)N3CCOCC3)cc1C(c1ccccc1Cl)=NC2` [WEB 2086, 4-(2-Chlorphenyl)-9-methyl-2-[3-(4-morpholinyl)-3-propanon-1-yl]-6H-thieno[3,2-f][1,2,4]triazolo[4,3-a][1,4]diazepin]?
Blutgaswerte bei Phosphorsäureestervergiftungen (Methylparathion): positiv beeinflußt; PCO2 (Methylparathion): 73,0 and 58,9; PO2 (Methylparathion): 51,7 and 61,9; pH (Methylparathion): 7,25 and 7,07; BE (PAF; [1]): -5.40; HCO3 (PAF; [1]): 19.8; O2sat (PAF; [1]): 91.5; TCO2 (PAF; [1]): 20.9; pCO2 (PAF; [1]): 38.2; pO2 (PAF; [1]): 72.8; ph (PAF; [1]): 7.32; pH-Wert-Erniedrigung (PAF): verhindert

`Cc1nnc2n1-c1sc3c(c1C(c1ccccc1Cl)=NC2)CC(C(=O)N1CCOCC1)C3` (centres unmarked) [WEB 2170, 6-(2-Chlorphenyl)-8,9-dihydro-1-methyl-8-[(4-morpholinyl)carbonyl]-4H,7H-cyclopenta[4,5]thieno[3,2-f][1,2,4]triazolo[4,3-a][1,4]diazepin] was tested. Which BE (PAF; [2]) did it give?
Its BE is 0.18.

What about the HCO3 (PAF; [2]) of the same compound?
The HCO3 was 22.9.

What about the O2sat (PAF; [2]) of the same compound?
The O2sat was 97.1.

What about the TCO2 (PAF; [2]) of the same compound?
Its TCO2 is 23.9.

What about the pCO2 (PAF; [2]) of the same compound?
The pCO2 was 33.8.

And the pO2 (PAF; [2])?
Its pO2 is 89.8.

And the ph (PAF; [2])?
The ph was 7.44.

What about the pH-Wert-Erniedrigung (PAF) of the same compound?
Its pH-Wert-Erniedrigung is “verhindert”.
